# Test results published in PubChem BioAssay (NCI).
#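 Assay format: 96-well plates, 48-hour exposure. TGI marks complete inhibition of growth.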
# Experiments:
# Assay in all cases: NCI tumour cell line growth inhibition, 48 h
# BT-549 breast = tested on: BT-549 breast
# UACC-62 melanoma = tested on: UACC-62 melanoma
# SK-MEL-2 melanoma = tested on: SK-MEL-2 melanoma
# LOX IMVI melanoma = tested on: LOX IMVI melanoma
# HOP-62 NSCLC = tested on: HOP-62 NSCLC
# OVCAR-3 ovarian = tested on: OVCAR-3 ovarian
# MCF7 breast = tested on: MCF7 breast
# SK-MEL-28 melanoma = tested on: SK-MEL-28 melanoma
# CAKI-1 renal = tested on: CAKI-1 renal
# T-47D breast = tested on: T-47D breast
# MDA-MB-435 = tested on: MDA-MB-435
# IGROV1 ovarian = tested on: IGROV1 ovarian
# UO-31 renal = tested on: UO-31 renal
# SR leukemia = tested on: SR leukemia
# SW-620 colon = tested on: SW-620 colon
# A549 NSCLC = tested on: A549 NSCLC
# COLO 205 colon = tested on: COLO 205 colon
# HCT-15 colon = tested on: HCT-15 colon
# OVCAR-8 ovarian = tested on: OVCAR-8 ovarian
# HT29 colon = tested on: HT29 colon
# RPMI-8226 leukemia = tested on: RPMI-8226 leukemia
# NCI/ADR-RES ovarian = tested on: NCI/ADR-RES ovarian
# SK-OV-3 ovarian = tested on: SK-OV-3 ovarian
# SNB-75 CNS = tested on: SNB-75 CNS
# A498 renal = tested on: A498 renal
# KM12 colon = tested on: KM12 colon
# K-562 leukemia = tested on: K-562 leukemia
# OVCAR-4 ovarian = tested on: OVCAR-4 ovarian
# MDA-N = tested on: MDA-N
# PC-3 prostate = tested on: PC-3 prostate
# 786-0 renal = tested on: 786-0 renal
# MALME-3M melanoma = tested on: MALME-3M melanoma
# NCI-H522 lung = tested on: NCI-H522 lung
# M14 melanoma = tested on: M14 melanoma
# HL-60(TB) leukemia = tested on: HL-60(TB) leukemia
# SF-539 CNS = tested on: SF-539 CNS
# SF-295 CNS = tested on: SF-295 CNS
# MOLT-4 leukemia = tested on: MOLT-4 leukemia
# OVCAR-5 ovarian = tested on: OVCAR-5 ovarian
# SNB-19 CNS = tested on: SNB-19 CNS
# RXF 393 renal = tested on: RXF 393 renal
# HCT-116 colon = tested on: HCT-116 colon
# ACHN renal = tested on: ACHN renal
# NCI-H23 lung = tested on: NCI-H23 lung
# SN12C renal = tested on: SN12C renal
# SF-268 CNS = tested on: SF-268 CNS
# HS 578T breast = tested on: HS 578T breast
# SK-MEL-5 melanoma = tested on: SK-MEL-5 melanoma
# HOP-92 NSCLC = tested on: HOP-92 NSCLC
# DU-145 prostate = tested on: DU-145 prostate
# NCI-H226 lung = tested on: NCI-H226 lung
# CCRF-CEM leukemia = tested on: CCRF-CEM leukemia
# EKVX NSCLC = tested on: EKVX NSCLC
# HCC-2998 colon = tested on: HCC-2998 colon
# UACC-257 melanoma = tested on: UACC-257 melanoma
# NCI-H460 lung = tested on: NCI-H460 lung
# MDA-MB-231 breast = tested on: MDA-MB-231 breast
# TK-10 renal = tested on: TK-10 renal
# U251 CNS = tested on: U251 CNS
compound,measurement,setting,value
CCC(=O)Nc1ccc(NC(C#N)c2cccc(Oc3ccccc3)c2)cc1 (stereo not given),TGI,BT-549 breast,> 100 µM
same,TGI,UACC-62 melanoma,> 100 µM
same,TGI,SK-MEL-2 melanoma,94.6 µM
same,TGI,LOX IMVI melanoma,47 µM
same,TGI,HOP-62 NSCLC,> 100 µM
same,TGI,OVCAR-3 ovarian,> 100 µM
same,TGI,MCF7 breast,> 100 µM
same,TGI,SK-MEL-28 melanoma,> 100 µM
same,TGI,CAKI-1 renal,> 100 µM
same,TGI,T-47D breast,> 100 µM
same,TGI,MDA-MB-435,> 100 µM
same,TGI,IGROV1 ovarian,> 100 µM
same,TGI,UO-31 renal,> 100 µM
same,TGI,SR leukemia,55 µM
same,TGI,SW-620 colon,> 100 µM
same,TGI,A549 NSCLC,> 100 µM
same,TGI,COLO 205 colon,> 100 µM
same,TGI,HCT-15 colon,> 100 µM
same,TGI,OVCAR-8 ovarian,73.4 µM
same,TGI,HT29 colon,> 100 µM
same,TGI,RPMI-8226 leukemia,66.9 µM
same,TGI,NCI/ADR-RES ovarian,> 100 µM
same,TGI,SK-OV-3 ovarian,> 100 µM
same,TGI,SNB-75 CNS,> 100 µM
same,TGI,A498 renal,> 100 µM
same,TGI,KM12 colon,> 100 µM
same,TGI,K-562 leukemia,> 100 µM
same,TGI,OVCAR-4 ovarian,> 100 µM
same,TGI,MDA-N,> 100 µM
same,TGI,PC-3 prostate,> 100 µM
same,TGI,786-0 renal,> 100 µM
same,TGI,MALME-3M melanoma,94.2 µM
same,TGI,NCI-H522 lung,> 100 µM
same,TGI,M14 melanoma,> 100 µM
same,TGI,HL-60(TB) leukemia,46.8 µM
same,TGI,SF-539 CNS,74.2 µM
same,TGI,SF-295 CNS,> 100 µM
same,TGI,MOLT-4 leukemia,36 µM
same,TGI,OVCAR-5 ovarian,> 100 µM
same,TGI,SNB-19 CNS,> 100 µM
same,TGI,RXF 393 renal,> 100 µM
same,TGI,HCT-116 colon,> 100 µM
same,TGI,ACHN renal,> 100 µM
same,TGI,NCI-H23 lung,> 100 µM
same,TGI,SN12C renal,> 100 µM
same,TGI,SF-268 CNS,> 100 µM
same,TGI,HS 578T breast,> 100 µM
same,TGI,SK-MEL-5 melanoma,48.1 µM
same,TGI,HOP-92 NSCLC,> 100 µM
same,TGI,DU-145 prostate,> 100 µM
same,TGI,NCI-H226 lung,89.3 µM
same,TGI,CCRF-CEM leukemia,> 100 µM
same,TGI,EKVX NSCLC,> 100 µM
Cc1cccc2c1c(=O)c1c(O)c3c(cc1n2C)OC(C)(C)C=C3,TGI,BT-549 breast,> 10 µM
same,TGI,UACC-62 melanoma,> 10 µM
same,TGI,SK-MEL-2 melanoma,> 10 µM
same,TGI,LOX IMVI melanoma,> 10 µM
same,TGI,HOP-62 NSCLC,> 10 µM
same,TGI,OVCAR-3 ovarian,> 10 µM
same,TGI,MCF7 breast,> 10 µM
same,TGI,SK-MEL-28 melanoma,> 10 µM
same,TGI,CAKI-1 renal,> 10 µM
same,TGI,HCC-2998 colon,> 10 µM
same,TGI,UACC-257 melanoma,> 10 µM
same,TGI,T-47D breast,> 10 µM
same,TGI,MDA-MB-435,> 10 µM
same,TGI,IGROV1 ovarian,> 10 µM
same,TGI,SR leukemia,> 10 µM
same,TGI,SW-620 colon,> 10 µM
same,TGI,A549 NSCLC,> 10 µM
same,TGI,COLO 205 colon,> 10 µM
same,TGI,HCT-15 colon,> 10 µM
same,TGI,OVCAR-8 ovarian,> 10 µM
same,TGI,HT29 colon,> 10 µM
same,TGI,RPMI-8226 leukemia,> 10 µM
same,TGI,NCI/ADR-RES ovarian,> 10 µM
same,TGI,SK-OV-3 ovarian,> 10 µM
same,TGI,SNB-75 CNS,> 10 µM
same,TGI,A498 renal,> 10 µM
same,TGI,KM12 colon,> 10 µM
same,TGI,K-562 leukemia,> 10 µM
same,TGI,OVCAR-4 ovarian,> 10 µM
same,TGI,MDA-N,> 10 µM
same,TGI,PC-3 prostate,> 10 µM
same,TGI,NCI-H460 lung,> 10 µM
same,TGI,MDA-MB-231 breast,> 10 µM
same,TGI,TK-10 renal,> 10 µM
same,TGI,786-0 renal,> 10 µM
same,TGI,MALME-3M melanoma,> 10 µM
same,TGI,NCI-H522 lung,> 10 µM
same,TGI,M14 melanoma,> 10 µM
same,TGI,HL-60(TB) leukemia,> 10 µM
same,TGI,SF-539 CNS,> 10 µM
same,TGI,SF-295 CNS,> 10 µM
same,TGI,MOLT-4 leukemia,> 10 µM
same,TGI,OVCAR-5 ovarian,> 10 µM
same,TGI,SNB-19 CNS,> 10 µM
same,TGI,RXF 393 renal,> 10 µM
same,TGI,HCT-116 colon,> 10 µM
same,TGI,ACHN renal,> 10 µM
same,TGI,NCI-H23 lung,> 10 µM
same,TGI,SN12C renal,> 10 µM
same,TGI,SF-268 CNS,> 10 µM
same,TGI,HS 578T breast,> 10 µM
same,TGI,SK-MEL-5 melanoma,> 10 µM
same,TGI,DU-145 prostate,> 10 µM
same,TGI,NCI-H226 lung,> 10 µM
same,TGI,CCRF-CEM leukemia,> 10 µM
same,TGI,U251 CNS,> 10 µM
same,TGI,EKVX NSCLC,> 10 µM
